Source: patent US10457677B2 (priority 2015, dated 2019)
Like-named read-outs stand apart in the source and are kept apart here.

Experiments:
PI3K p110α/p85α (human) = PI3K p110α/p85α (human) (Homo sapiens (Human), UniProt P42336); assay: PI3K p110α/p85α (human), non-radioactive assay (HTRF); type: biochemical; conditions: read-out: IC50 (PI3Kalpha)
PI3K p110β/p85α (human) = PI3K p110β/p85α (human) (Homo sapiens (Human), UniProt P42338); assay: PI3K p110β/p85α (human), non-radioactive assay (HTRF); type: biochemical; conditions: read-out: IC50 (PI3Kbeta)
In short: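 Human p110β/p85α incubated with 10 μM phosphatidylinositol 4,5-bisphosphate and MgATP for 30 min at room temperature, stopped with EDTA plus biotinylated PIP3. HTRF detection used a Eu-anti-GST antibody, GST-GRP1 PH domain and streptavidin-APC, with signal taken as 10000×(Em665nm/Em620nm).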

PI3K (p120γ) (human) = PI3K (p120γ) (human) (Homo sapiens (Human), UniProt P48736); assay: PI3K (p120γ) (human), non-radioactive assay (HTRF); type: biochemical; conditions: read-out: IC50 (PI3Kgamma)
In short: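 Enzyme was run with 10 μM phosphatidylinositol 4,5-bisphosphate, starting the reaction with MgATP at an unspecified level, for 30 min at room temperature. The stop used EDTA plus biotinylated PIP3, and detection used Eu-anti-GST, GST-GRP1 PH domain and streptavidin-APC. Signal was taken as HTRF = 10000×(Em665nm/Em620nm).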

[1] = biological target: purified human recombinant ATM (ataxia telangiectasia mutated), full length (Homo sapiens (Human), UniProt Q13315); assay: ATM kinase assay - determination of ATM inhibition (IC50 ATM), TR-FRET; type: biochemical
purified human recombinant ATM (ataxia telangiectasia mutated), full length, sequence (Q13315 whole entry, change not shown): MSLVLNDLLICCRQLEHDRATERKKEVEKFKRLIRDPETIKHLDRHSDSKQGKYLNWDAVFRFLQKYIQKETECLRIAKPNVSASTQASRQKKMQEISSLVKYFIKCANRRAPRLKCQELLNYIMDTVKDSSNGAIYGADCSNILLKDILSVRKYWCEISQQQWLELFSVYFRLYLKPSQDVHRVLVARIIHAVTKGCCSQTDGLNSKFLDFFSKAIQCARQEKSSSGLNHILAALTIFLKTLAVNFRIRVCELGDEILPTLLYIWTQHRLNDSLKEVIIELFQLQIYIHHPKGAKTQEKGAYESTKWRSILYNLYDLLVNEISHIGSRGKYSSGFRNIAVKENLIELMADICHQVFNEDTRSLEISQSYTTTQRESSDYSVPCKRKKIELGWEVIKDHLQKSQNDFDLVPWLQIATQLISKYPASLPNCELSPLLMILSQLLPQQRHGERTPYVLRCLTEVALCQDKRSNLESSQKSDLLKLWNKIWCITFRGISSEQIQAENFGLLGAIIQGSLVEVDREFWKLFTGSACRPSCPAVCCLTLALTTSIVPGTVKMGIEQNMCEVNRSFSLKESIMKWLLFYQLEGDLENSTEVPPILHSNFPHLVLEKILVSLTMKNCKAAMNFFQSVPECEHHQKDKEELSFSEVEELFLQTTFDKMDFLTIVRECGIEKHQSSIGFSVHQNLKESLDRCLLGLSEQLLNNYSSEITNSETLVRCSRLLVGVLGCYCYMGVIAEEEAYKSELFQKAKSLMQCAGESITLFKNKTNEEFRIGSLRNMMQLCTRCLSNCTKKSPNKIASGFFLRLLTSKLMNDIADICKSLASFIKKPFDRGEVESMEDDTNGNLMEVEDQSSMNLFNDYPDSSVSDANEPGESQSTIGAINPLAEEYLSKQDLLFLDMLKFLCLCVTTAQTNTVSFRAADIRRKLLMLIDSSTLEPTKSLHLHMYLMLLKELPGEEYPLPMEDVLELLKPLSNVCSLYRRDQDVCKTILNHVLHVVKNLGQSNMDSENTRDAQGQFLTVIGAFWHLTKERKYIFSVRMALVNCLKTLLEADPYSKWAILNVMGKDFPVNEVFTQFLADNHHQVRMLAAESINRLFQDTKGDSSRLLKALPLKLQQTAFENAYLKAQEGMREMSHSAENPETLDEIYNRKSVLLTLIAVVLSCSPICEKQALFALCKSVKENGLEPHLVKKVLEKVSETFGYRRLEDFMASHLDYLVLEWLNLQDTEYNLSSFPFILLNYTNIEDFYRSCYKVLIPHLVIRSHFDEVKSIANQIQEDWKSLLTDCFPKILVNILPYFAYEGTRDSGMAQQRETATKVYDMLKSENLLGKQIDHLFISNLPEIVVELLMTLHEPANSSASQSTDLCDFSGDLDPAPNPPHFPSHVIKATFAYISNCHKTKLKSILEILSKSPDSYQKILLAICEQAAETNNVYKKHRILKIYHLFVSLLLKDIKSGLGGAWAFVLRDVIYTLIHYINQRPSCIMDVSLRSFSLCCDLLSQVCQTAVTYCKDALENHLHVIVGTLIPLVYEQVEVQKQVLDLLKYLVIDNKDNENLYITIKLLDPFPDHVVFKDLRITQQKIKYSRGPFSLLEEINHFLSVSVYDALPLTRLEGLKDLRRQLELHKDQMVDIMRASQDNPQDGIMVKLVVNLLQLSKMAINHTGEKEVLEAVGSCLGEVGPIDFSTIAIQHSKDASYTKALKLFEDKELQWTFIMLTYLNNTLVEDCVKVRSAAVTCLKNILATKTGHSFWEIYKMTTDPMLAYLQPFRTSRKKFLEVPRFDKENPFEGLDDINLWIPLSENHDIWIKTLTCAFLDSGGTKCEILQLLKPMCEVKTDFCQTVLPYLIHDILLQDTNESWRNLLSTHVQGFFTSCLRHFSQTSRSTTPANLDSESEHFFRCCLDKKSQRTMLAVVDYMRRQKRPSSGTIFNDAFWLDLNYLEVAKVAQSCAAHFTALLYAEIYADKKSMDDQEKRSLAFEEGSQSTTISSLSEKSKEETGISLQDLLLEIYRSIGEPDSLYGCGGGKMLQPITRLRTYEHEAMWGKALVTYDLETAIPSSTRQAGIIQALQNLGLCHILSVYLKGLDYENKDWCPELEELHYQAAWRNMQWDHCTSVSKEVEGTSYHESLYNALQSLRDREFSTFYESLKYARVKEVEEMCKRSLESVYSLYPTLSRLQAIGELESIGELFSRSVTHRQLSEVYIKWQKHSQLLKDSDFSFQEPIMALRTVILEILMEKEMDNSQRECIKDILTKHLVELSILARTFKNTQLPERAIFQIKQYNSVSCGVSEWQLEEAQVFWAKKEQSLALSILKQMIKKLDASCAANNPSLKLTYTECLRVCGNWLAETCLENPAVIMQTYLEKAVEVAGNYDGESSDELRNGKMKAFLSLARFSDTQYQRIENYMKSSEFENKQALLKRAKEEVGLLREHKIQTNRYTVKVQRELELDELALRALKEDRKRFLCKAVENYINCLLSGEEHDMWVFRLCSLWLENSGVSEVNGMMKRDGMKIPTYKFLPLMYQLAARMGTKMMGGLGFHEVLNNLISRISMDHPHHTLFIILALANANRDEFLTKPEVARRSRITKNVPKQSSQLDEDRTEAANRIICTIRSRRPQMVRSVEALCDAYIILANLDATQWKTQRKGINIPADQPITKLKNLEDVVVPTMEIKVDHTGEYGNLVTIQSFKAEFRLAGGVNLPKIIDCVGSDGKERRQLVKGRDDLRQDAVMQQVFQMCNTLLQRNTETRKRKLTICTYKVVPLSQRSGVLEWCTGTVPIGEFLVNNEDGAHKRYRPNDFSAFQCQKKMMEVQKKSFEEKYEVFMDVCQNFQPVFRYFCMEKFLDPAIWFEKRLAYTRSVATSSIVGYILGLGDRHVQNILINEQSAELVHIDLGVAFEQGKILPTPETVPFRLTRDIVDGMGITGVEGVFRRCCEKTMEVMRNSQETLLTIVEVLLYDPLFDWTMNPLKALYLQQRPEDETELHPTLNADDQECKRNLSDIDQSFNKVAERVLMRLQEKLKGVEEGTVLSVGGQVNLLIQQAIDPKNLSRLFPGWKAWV
In short: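 Full-length enzyme, expressed in a mammalian cell line, pre-incubated 15 min with inhibitor in 25 mM HEPES pH 8.0, 10 mM Mg(CH3COO)2, 1 mM MnCl2, 0,1% BSA, 0,01% Brij 35, 5 mM DTT. Full-length cmyc-p53 (Sf21-expressed) and ATP then added, 30-35 min at 22° C. EDTA stop; p53 S15 phosphorylation read by TR-FRET antibodies.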

[2] = tested on: phosphorylation of CHK2 (phospho-Thr68) in HCT116 cells; assay: Cellular pCHK2 assay: bleomycin-induced phosphorylation of CHK2 (phospho-Thr68), immunofluorescence high-content analysis; type: cell-based, human; conditions: Homo sapiens, HCT-116, 4 h, read-out: IC50 (pCHK2)
In short: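 HCT116 cells in DMEM with 10% FCS, incubated overnight at 37° C, then given compounds (1 nM to 30 μM, 0.5% DMSO) together with 10 μM bleomycin. Phospho-Thr68 CHK2 immunostained and imaged by high-content imager; nuclei with pCHK2 above background counted, cell count from propidium iodide DNA stain.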

mTOR (human) = mTOR (human) (Homo sapiens (Human), UniProt P42345); assay: mTOR (human) kinase assay, [γ-33P-ATP] filter assay; type: biochemical
In short: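 Radiometric filter assay: enzyme in 50 mM HEPES pH 7.5, 1 mM EGTA, 0.01% Tween 20, 3 mM MnCl2, 2 mg/ml substrate with [γ-33P-ATP], started with MgATP. Incubated 40 min at room temperature, stopped with 3% phosphoric acid; incorporation measured on P30 filtermat by scintillation counting.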

PI3K p110δ/p85α (human) = PI3K p110δ/p85α (human) (Homo sapiens (Human), UniProt O00329); assay: PI3K p110δ/p85α (human), non-radioactive assay (HTRF); type: biochemical; conditions: read-out: IC50 (PI3Kdelta)

PI3K p110α/p85α (human), sequence (P42336 whole entry): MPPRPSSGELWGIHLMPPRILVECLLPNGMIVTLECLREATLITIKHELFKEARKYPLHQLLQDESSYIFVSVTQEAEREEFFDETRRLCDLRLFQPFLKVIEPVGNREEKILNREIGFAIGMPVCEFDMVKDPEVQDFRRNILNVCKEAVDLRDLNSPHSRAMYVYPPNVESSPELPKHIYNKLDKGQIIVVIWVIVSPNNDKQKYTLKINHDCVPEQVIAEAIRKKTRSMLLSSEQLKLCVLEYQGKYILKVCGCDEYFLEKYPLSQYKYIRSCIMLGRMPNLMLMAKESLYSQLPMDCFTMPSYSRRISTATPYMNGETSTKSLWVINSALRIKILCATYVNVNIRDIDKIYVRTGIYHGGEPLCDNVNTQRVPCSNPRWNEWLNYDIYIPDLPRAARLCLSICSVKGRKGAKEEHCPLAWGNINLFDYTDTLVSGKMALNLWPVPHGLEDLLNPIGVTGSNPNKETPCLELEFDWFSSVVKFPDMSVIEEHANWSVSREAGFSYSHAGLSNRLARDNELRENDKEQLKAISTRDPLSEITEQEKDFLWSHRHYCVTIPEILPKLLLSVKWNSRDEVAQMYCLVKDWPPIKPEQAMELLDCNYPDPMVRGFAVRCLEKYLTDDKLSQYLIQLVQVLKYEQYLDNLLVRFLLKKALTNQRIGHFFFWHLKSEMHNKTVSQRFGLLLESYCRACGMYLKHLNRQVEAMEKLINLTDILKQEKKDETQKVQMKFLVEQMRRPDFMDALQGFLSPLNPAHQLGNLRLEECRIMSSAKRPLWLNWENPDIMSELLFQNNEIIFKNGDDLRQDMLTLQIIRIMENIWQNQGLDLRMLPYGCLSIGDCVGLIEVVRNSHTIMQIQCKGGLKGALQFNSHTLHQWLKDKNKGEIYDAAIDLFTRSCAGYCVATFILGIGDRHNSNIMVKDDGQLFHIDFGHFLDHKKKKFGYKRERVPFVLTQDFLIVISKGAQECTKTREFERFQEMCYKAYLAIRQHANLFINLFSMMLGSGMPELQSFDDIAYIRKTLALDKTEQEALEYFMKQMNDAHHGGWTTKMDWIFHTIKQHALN
PI3K p110α/p85α (human), sequence (P27986 whole entry partner): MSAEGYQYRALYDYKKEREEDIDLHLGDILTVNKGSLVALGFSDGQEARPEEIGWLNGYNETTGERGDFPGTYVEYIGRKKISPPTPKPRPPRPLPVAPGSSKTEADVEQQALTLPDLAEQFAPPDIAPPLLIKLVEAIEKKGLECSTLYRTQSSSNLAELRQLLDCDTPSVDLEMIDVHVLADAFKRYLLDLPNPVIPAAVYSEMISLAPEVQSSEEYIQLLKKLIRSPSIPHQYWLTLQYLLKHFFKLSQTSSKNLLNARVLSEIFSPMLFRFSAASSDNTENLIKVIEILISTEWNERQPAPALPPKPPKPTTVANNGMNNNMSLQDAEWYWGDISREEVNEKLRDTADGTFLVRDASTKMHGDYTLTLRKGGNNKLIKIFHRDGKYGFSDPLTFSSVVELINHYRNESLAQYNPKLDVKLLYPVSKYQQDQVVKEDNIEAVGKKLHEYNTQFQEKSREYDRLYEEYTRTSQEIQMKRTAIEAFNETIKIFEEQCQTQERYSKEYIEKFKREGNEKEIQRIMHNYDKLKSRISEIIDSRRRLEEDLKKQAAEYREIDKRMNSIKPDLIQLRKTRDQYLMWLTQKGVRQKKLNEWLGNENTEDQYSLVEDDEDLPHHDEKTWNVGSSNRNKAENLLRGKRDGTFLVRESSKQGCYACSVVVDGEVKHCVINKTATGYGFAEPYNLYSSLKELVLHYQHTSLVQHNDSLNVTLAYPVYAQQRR

Compound | IC50 (PI3K p110α/p85α (human)) [µM] | IC50 (PI3K p110β/p85α (human)) [µM] | IC50 (PI3K (p120γ) (human)) [µM] | IC50 [1] [µM] | IC50 ([1]; 10 μM ATP, substrate p53) [µM] | IC50 [2] [µM] | IC50 (mTOR (human)) [µM] | IC50 (PI3K p110δ/p85α (human)) [µM]
COc1cc2ncc3c(c2cc1-c1cnn(C)c1)n(-c1ccnc(C#N)c1)c(=O)n3C [Compound Example 45, 4-[7-Methoxy-3-methyl-8-(1-methyl-1H-pyrazol-4-yl)-2-oxo-2,3-dihydroimidazo-[4,5-c]quinolin-1-yl]pyridine-2-carbonitrile] | > 30 | > 30 | > 30 | < 0.05 | < 0.05 | 0.2 to 1 | > 30 | > 30
CCn1cc(-c2cc3c(cc2OC)ncc2c3n(-c3c(C)cncc3F)c(=O)n2C)cn1 [Compound Example 38, 8-(1-Ethyl-1H-pyrazol-4-yl)-1-(3-fluoro-5-methylpyridin-4-yl)-7-methoxy-3-methyl-1,3-dihydroimidazo[4,5-c] quinolin-2-one] | > 30 | > 30 | > 30 | < 0.001 | < 0.001 | 0.2 to 1 | > 30 | > 30
COc1cc2ncc3c(c2cc1-c1cnn(C)c1)n(-c1nccs1)c(=O)n3C [Compound Example 47, 7-Methoxy-3-methyl-8-(1-methyl-1H-pyrazol-4-yl)-1-thiazol-2-yl-1,3-dihydro-imidazo[4,5-c]quinolin-2-one] | > 30 | > 30 | > 30 | < 0.01 | < 0.01 | 0.2 to 1 | > 30 | > 30
COc1cc2ncc3c(c2cc1-c1cn(C)nc1C)n(-c1cn(C)nc1C)c(=O)n3C [Compound Example 10, 1,8-Bis-(1,3-dimethyl-1H-pyrazol-4-yl)-7-methoxy-3-methyl-1,3-dihydroimidazo-[4,5-c]quinolin-2-one] | > 30 | > 30 | > 30 | < 0.001 | < 0.001 | < 0.2 | > 30 | > 30
COc1cc2ncc3c(c2cc1-c1cnn(C)c1)n(-c1cnn(C2CCOCC2)c1)c(=O)n3C [Compound Example 55, 7-Methoxy-3-methyl-8-(1-methyl-1H-pyrazol-4-yl)-1-[1-(tetrahydropyran-4-yl)-1H-pyrazol-4-yl]-1,3-dihydroimidazo[4,5-c]-quinolin-2-one] | > 30 | > 30 | > 30 | < 0.01 | < 0.01 | 0.2 to 1 | > 30 | > 30
CCc1cncc(F)c1-n1c(=O)n(C)c2cnc3cc(OC)c(-c4cnn(C)c4)cc3c21 [Compound Example 12, 1-(3-Ethyl-5-fluoropyridin-4-yl)-7-methoxy-3-methyl-8-(1-methyl-1H-pyrazol-4-yl)-1,3-dihydroimidazo[4,5-c]-quinolin-2-one] | > 30 | > 30 | > 30 | < 0.001 | < 0.001 | < 0.2 | > 30 | > 30
COc1cc2ncc3c(c2cc1-c1cc(C)[nH]n1)n(-c1ncccc1F)c(=O)n3C [Compound Example 29, 1-(3-Fluoropyridin-2-yl)-7-methoxy-3-methyl-8-(5-methyl-1H-pyrazol-3-yl)-1,3-dihydroimidazo[4,5-c] quinolin-2-one] | > 30 | > 30 | > 30 | < 0.01 | < 0.01 | < 0.2 | > 30 | > 30
COc1cc2ncc3c(c2cc1-c1cnn(C)c1)n(-c1cncnc1)c(=O)n3C [Compound Example 57, 7-Methoxy-3-methyl-8-(1-methyl-1H-pyrazol-4-yl)-1-pyrimidin-5-yl-1,3-dihydro-imidazo[4,5-c]quinolin-2-one] | > 30 | > 30 | > 30 | < 0.05 | < 0.05 | 0.2 to 1 | > 30 | > 30
COc1cc2ncc3c(c2cc1-c1cnn(C)c1)n(-c1cn[nH]c1)c(=O)n3C [Compound Example 53, 7-Methoxy-3-methyl-8-(1-methyl-1H-pyrazol-4-yl)-1-(1H-pyrazol-4-yl)-1,3-dihydroimidazo[4,5-c]-quinolin-2-one] | > 30 | > 30 | > 30 | < 0.01 | < 0.01 | 0.2 to 1 | > 30 | > 30
